Measurements reported in patent US20110020235A1, “MR METHODS OF GRADING A TUMOR USING AN IMAGING MEDIUM THAT COMPRISES HYPERPOLARISED 13C-PYRUVATE” (priority 2007, published 2011).

Test: T1 relaxation of 13C1-pyruvate in human full blood
Type: physicochemical
Conditions: human full blood at 37° C.

T1 relaxation: about 42 s
SMILES: CC(=O)C(=O)O [13C1-pyruvate]
